Here are results for four compounds from US20260297627A1, “MODULATION OF GLOBAL REGULATORY MECHANISMS AND BIOSYNTHETIC GENE CLUSTERS FOR SIMPLIFIED PRODUCTION OF NATURAL PRODUCTS” (priority 2023, published 2026).

In test [1] the test system is X. indica ΔrpmM-O mutant (strain VII). The test can be described thus: Growth curve of X. indica ΔrpmM-O mutant (strain VII) with fed benzoic acid derivative. It is filed as cell-based, Xenorhabdus indica. On the procedure:
To elucidate the influence of rpmM-O on biosynthesis, they were deleted together bases on pAR20 with the synthetic dsDNA fragments used for CRISPR/Cas12 mediated genome editing specific HA-L and R SEQ ID NOs 177-178 The resulting mutant ΔrpmM-O was then analysed for production and growth. Also with the addition of 3,4-AHBA, no growth and thus no production could be observed (FIG. 12 VII).
(§1) In order to analyze the growth curve, the strains were cultured in microtiter plates in a Tecan Spark microplate reader (FIG. 14). A comparison was initially made between strain V and strain VII with and without the addition of 3,4-AHBA (FIGS. 14 A and B). Furthermore, to investigate the sole effect of 3,4-AHBA on the cells, 3,4-AHBA was added to the cells in presence or not of the rpm BGC inducer IPTG (FIGS. 14A and B). […] Subsequently, in order to investigate the effect of the amino group on the benzoic acid, 3,4-DHBA was fed to both strains (FIGS. 14 C and D). […] It can therefore be concluded that the amino group is crucial for the bioactivity of rupshomycin.

Test [2] relates to proteasome. The conditions noted are these: role: inhibitor; cited from earlier work.
In test [3] the test system is X. indica strain V. Kind of test: Growth curve of X. indica strain V with fed benzoic acid derivative. Format: cell-based, Xenorhabdus indica. The conditions noted are these: with and without 3,4-AHBA, in presence or not of IPTG. Here is the method:
as §1

In test [4] the test system is X. indica ΔrpmM-O mutant with vector expressing rpmM and rpmN (strain VIII). The conditions noted are these: 3,4-AHBA and IPTG; compared to empty vector control. On the procedure: (§2) Addition of the inducer and benzoic acid was added from the start. The numbering I-IX corresponds to the strains in FIG. 12. A: growth of strain I culture with and without induction (1 mM IPTG), with and without addition of 3,4-AHBA. B: growth of strain V culture with and without induction, with and without addition of 3,4-AHBA. C: growth of strain I culture with and without induction, with and without addition of 3,4-DHBA. D: growth of strain V culture with and without induction, with and without addition of 3,4-DHBA. E: growth of induced and 3,4-AHBA supplemented strain VIII culture with vector expressing rpmMN or empty expression vector. F: growth of induced and 3,4-AHBA supplemented strain IX culture with vector expressing rpmO or empty expression vector.
(§3) Which of the rpmM-O genes are responsible for resistance to the biosynthesis product of the rpm BGC was the question addressed in the following studies. […] The influence of the vector was excluded by conjugating an empty vector into the strains as a control. […] Production of rupshomycins were performed in XPP3 medium with 2% (v/v) XAD-16 for in situ extraction.

Test [5] has as its system X. indica ΔrpmM-O mutant with vector expressing rpmO (strain IX). The conditions noted are these: 3,4-AHBA and IPTG; compared to empty vector control. Here is the method: as §2, §3
The subject of test [6] is X. indica ΔrpmM-O mutant with empty vector. To be noted: 3,4-AHBA and IPTG; empty vector control. Here is the method:
as §2, §3

“Also recorded” adds a separate entry of the source.

As for `O=C(O)c1ccc(O)c(O)c1` [3,4-DHBA], the growth entry in test [1] (3,4-DHBA fed, induced vs non-induced culture) is recorded as “did not lead to the complete death of the ΔrpmM-O culture, but to a growth deficiency compared to the non-induced culture”.
Turning to `CCCCCCC/C=C/C=C/C(=O)N[C@H](C(=O)N[C@H]1C[C@@H](O)CCNC(=O)/C=C/[C@H](C)NC1=O)[C@@H](C)O` [glidobactin A], the proteasome inhibition result in test [2] was “potent proteasome inhibitors”.
Take `Nc1cc(C(=O)O)ccc1O` [3,4-AHBA, 3-amino-4-hydroxy benzoic acid]: the growth entry in test [3] is “no particular growth differences were observed”; in test [1] (3,4-AHBA fed, rpm BGC induced, 96 well microtiter plate, 24 hours) it was “culture dies after induction; also recorded: no growth; also recorded: a weak growth was observed in the first 3 hours, which then quickly collapsed and fell below the optical density of the starting point of the experiment”; in test [4] it was “significant growth of the culture compared to the empty vector control”; in test [5], “no significant growth of the culture was observed compared to the empty vector control”; in test [6] it was “severe growth defect of the culture”.
For the compound `CC(C)CCCCC/C=C/C=C/C(=O)N[C@H](C(=O)N[C@H]1CC(O)CCNC(=O)/C=C/C(C)NC1=O)[C@@H](C)O` (some centres unmarked) [cepafungin I], in test [2], the proteasome inhibition result is on record as “potent proteasome inhibitors”.
